Common to all, as to format: functional
For experiment [1], the system named is Staphylococcus aureus. Description: Antibacterial activity against Staphylococcus aureus assessed as diameter of inhibition zone at 12.5 ug/well after 24 hrs by agar well diffusion method. The note with it: for zone of inhibition at 12.5 µg/disc: read-out: DIZ.
For experiment [2], the system named is Staphylococcus aureus. The experiment is described as follows: Antibacterial activity against Staphylococcus aureus assessed as diameter of inhibition zone at 25 ug/well after 24 hrs by agar well diffusion method. The note with it: for zone of inhibition at 25 µg/disc: read-out: DIZ.
Experiment [3] has as its system Staphylococcus aureus. Description: Antibacterial activity against Staphylococcus aureus assessed as diameter of inhibition zone at 50 ug/well after 24 hrs by agar well diffusion method. The note with it: for zone of inhibition at 50 µg/disc: read-out: DIZ.
The test system of experiment [4] is Staphylococcus aureus. The experiment is described as follows: Antibacterial activity against Staphylococcus aureus assessed as diameter of inhibition zone at 100 ug/well after 24 hrs by agar well diffusion method. As to conditions: for zone of inhibition at 100 µg/disc: read-out: DIZ.
Experiment [5] relates to Bacillus subtilis. Description: Antibacterial activity against Bacillus subtilis assessed as diameter of inhibition zone at 12.5 ug/well after 24 hrs by agar well diffusion method. As to conditions: for zone of inhibition at 12.5 µg/disc: read-out: DIZ.
For experiment [6], the system named is Bacillus subtilis. The experiment is described as follows: Antibacterial activity against Bacillus subtilis assessed as diameter of inhibition zone at 25 ug/well after 24 hrs by agar well diffusion method. As to conditions: for zone of inhibition at 25 µg/disc: read-out: DIZ.
Experiment [7] has as its system Bacillus subtilis. Description: Antibacterial activity against Bacillus subtilis assessed as diameter of inhibition zone at 50 ug/well after 24 hrs by agar well diffusion method. As to conditions: for zone of inhibition at 50 µg/disc: read-out: DIZ.
For experiment [8], the system named is Bacillus subtilis. The experiment is described as follows: Antibacterial activity against Bacillus subtilis assessed as diameter of inhibition zone at 100 ug/well after 24 hrs by agar well diffusion method. As to conditions: for zone of inhibition at 100 µg/disc: read-out: DIZ.
The subject of experiment [9] is Pseudomonas aeruginosa. The experiment is described as follows: Antibacterial activity against Pseudomonas aeruginosa assessed as diameter of inhibition zone at 12.5 ug/well after 24 hrs by agar well diffusion method. As to conditions: for zone of inhibition at 12.5 µg/disc: read-out: DIZ.
Experiment [10] concerns Pseudomonas aeruginosa. Description: Antibacterial activity against Pseudomonas aeruginosa assessed as diameter of inhibition zone at 25 ug/well after 24 hrs by agar well diffusion method. The note with it: for zone of inhibition at 25 µg/disc: read-out: DIZ.
Experiment [11] concerns Pseudomonas aeruginosa. Description: Antibacterial activity against Pseudomonas aeruginosa assessed as diameter of inhibition zone at 50 ug/well after 24 hrs by agar well diffusion method. As to conditions: for zone of inhibition at 50 µg/disc: read-out: DIZ.
The test system of experiment [12] is Pseudomonas aeruginosa. Description: Antibacterial activity against Pseudomonas aeruginosa assessed as diameter of inhibition zone at 100 ug/well after 24 hrs by agar well diffusion method. The note with it: for zone of inhibition at 100 µg/disc: read-out: DIZ.
The test system of experiment [13] is Klebsiella pneumoniae. The experiment is described as follows: Antibacterial activity against Klebsiella pneumoniae assessed as diameter of inhibition zone at 12.5 ug/well after 24 hrs by agar well diffusion method. As to conditions: for zone of inhibition at 12.5 µg/disc: read-out: DIZ.
Experiment [14] has as its system Klebsiella pneumoniae. Description: Antibacterial activity against Klebsiella pneumoniae assessed as diameter of inhibition zone at 25 ug/well after 24 hrs by agar well diffusion method. The note with it: for zone of inhibition at 25 µg/disc: read-out: DIZ.
Experiment [15] deals with Klebsiella pneumoniae. The experiment is described as follows: Antibacterial activity against Klebsiella pneumoniae assessed as diameter of inhibition zone at 50 ug/well after 24 hrs by agar well diffusion method. As to conditions: for zone of inhibition at 50 µg/disc: read-out: DIZ.
For experiment [16], the system named is Klebsiella pneumoniae. The experiment is described as follows: Antibacterial activity against Klebsiella pneumoniae assessed as diameter of inhibition zone at 100 ug/well after 24 hrs by agar well diffusion method. The note with it: for zone of inhibition at 100 µg/disc: read-out: DIZ.
The test system of experiment [17] is Aspergillus niger. The experiment is described as follows: Antifungal activity against Aspergillus niger assessed as diameter of inhibition zone at 12.5 ug/well after 48 hrs by agar well diffusion method. The note with it: for zone of inhibition at 12.5 µg/disc: read-out: DIZ.
Experiment [18] concerns Aspergillus niger. Description: Antifungal activity against Aspergillus niger assessed as diameter of inhibition zone at 25 ug/well after 48 hrs by agar well diffusion method. As to conditions: for zone of inhibition at 25 µg/disc: read-out: DIZ.
The test system of experiment [19] is Aspergillus niger. Description: Antifungal activity against Aspergillus niger assessed as diameter of inhibition zone at 50 ug/well after 48 hrs by agar well diffusion method. The note with it: for zone of inhibition at 50 µg/disc: read-out: DIZ.
In experiment [20] the test system is Aspergillus niger. Description: Antifungal activity against Aspergillus niger assessed as diameter of inhibition zone at 100 ug/well after 48 hrs by agar well diffusion method. As to conditions: for zone of inhibition at 100 µg/disc: read-out: DIZ.
In experiment [21] the test system is Penicillium chrysogenum. The experiment is described as follows: Antifungal activity against Penicillium chrysogenum assessed as diameter of inhibition zone at 12.5 ug/well after 48 hrs by agar well diffusion method. As to conditions: for zone of inhibition at 12.5 µg/disc: read-out: DIZ.
Experiment [22] relates to Penicillium chrysogenum. Description: Antifungal activity against Penicillium chrysogenum assessed as diameter of inhibition zone at 25 ug/well after 48 hrs by agar well diffusion method. As to conditions: for zone of inhibition at 25 µg/disc: read-out: DIZ.
In experiment [23] the test system is Penicillium chrysogenum. The experiment is described as follows: Antifungal activity against Penicillium chrysogenum assessed as diameter of inhibition zone at 50 ug/well after 48 hrs by agar well diffusion method. As to conditions: for zone of inhibition at 50 µg/disc: read-out: DIZ.
Experiment [24] concerns Penicillium chrysogenum. Description: Antifungal activity against Penicillium chrysogenum assessed as diameter of inhibition zone at 100 ug/well after 48 hrs by agar well diffusion method. The note with it: for zone of inhibition at 100 µg/disc: read-out: DIZ.

Activity calls are given as the source filed them. No cut-off for these calls is given here.

The record followed here is ChEMBL document CHEMBL4251634, “Synthesis and antimicrobial activity of pyrimidinyl 1,3,4-oxadiazoles, 1,3,4-thiadiazoles and 1,2,4-triazoles” (2018).

Take `Cc1cc(SCc2nnc(-c3ccc(Cl)cc3)o2)nc(SCc2nnc(-c3ccc(Cl)cc3)o2)n1`: the “diameter of the inhibition zone (DIZ)” value in experiment [1], in experiment [2], in [3], in experiment [4], in experiment [5] and in experiment [6] was “inactive” each time. Also, the zone of inhibition at 50 µg/disc in experiment [7] is 7 mm; in experiment [11] it was 14 mm; in experiment [15], 13 mm; in experiment [19] it was 22 mm; in experiment [23], 15 mm. The zone of inhibition at 100 µg/disc was 9 mm in [8]; 17 mm in experiment [12]; 16 mm in [16]; 25 mm in experiment [20]; 17 mm in experiment [24]. Besides, the zone of inhibition at 12.5 µg/disc in experiment [9] was 10 mm; in experiment [13], 10 mm; in experiment [17], 18 mm; in experiment [21], 11 mm. Besides, the zone of inhibition at 25 µg/disc in [10] is 12 mm; in [14], 11 mm; in [18], 20 mm; in experiment [22], 13 mm.

On to `Cc1cc(SCc2nnc(-c3ccccc3)n2N)nc(SCc2nnc(-c3ccccc3)n2N)n1`, for which the zone of inhibition at 12.5 µg/disc came out at 8 mm in experiment [1]; 10 mm in experiment [5]; 14 mm in [9]; 17 mm in experiment [13]; 17 mm in [17]; 11 mm in experiment [21]. The zone of inhibition at 25 µg/disc is 9 mm in experiment [2]; 12 mm in experiment [6]; 16 mm in experiment [10]; 19 mm in [14]; 19 mm in [18]; 12 mm in experiment [22]. Also, the zone of inhibition at 50 µg/disc is 10 mm in experiment [3]; 14 mm in experiment [7]; 19 mm in experiment [11]; 22 mm in experiment [15]; 21 mm in [19]; 14 mm in experiment [23]. The zone of inhibition at 100 µg/disc came out at 12 mm in [4]; 17 mm in experiment [8]; 23 mm in experiment [12]; 24 mm in experiment [16]; 24 mm in experiment [20]; 16 mm in experiment [24].

`COc1ccc(-c2nnc(CSc3cc(C)nc(SCc4nnc(-c5ccc(OC)cc5)s4)n3)s2)cc1`: the “diameter of the inhibition zone (DIZ)” value in [1], in [2], in experiment [3], in experiment [4], in experiment [5] and in experiment [6] was “inactive” throughout. Further, the “diameter of the inhibition zone (DIZ)” value in experiment [7], in [8], in [9], in experiment [10], in experiment [13] and in experiment [14] was “inactive” throughout. Besides, the “diameter of the inhibition zone (DIZ)” value in [15], in experiment [17], in [18], in [19], in experiment [20] and in [21] was “inactive” throughout. The “diameter of the inhibition zone (DIZ)” value in [22], in experiment [23] and in experiment [24] was “inactive” throughout. In addition, in [11], the zone of inhibition at 50 µg/disc turned out to be 8 mm. Moreover, the values for the zone of inhibition at 100 µg/disc in experiment [12] and in experiment [16] were 10 mm and 13 mm, respectively.

As to `COc1ccc(-c2nnc(CSc3cc(C)nc(SCc4nnc(-c5ccc(OC)cc5)o4)n3)o2)cc1`, the “diameter of the inhibition zone (DIZ)” value in experiment [1], in experiment [2], in experiment [3], in [4], in [5] and in experiment [6] was “inactive” in each case. Further, the “diameter of the inhibition zone (DIZ)” value in experiment [7], in experiment [8], in experiment [9], in [10], in [11] and in experiment [12] was “inactive” in each case. Besides, the “diameter of the inhibition zone (DIZ)” value in [13], in experiment [14], in experiment [15], in experiment [16], in [17] and in experiment [18] was “inactive” each time. For the same compound, the “diameter of the inhibition zone (DIZ)” value in [19], in experiment [20], in [21], in experiment [22], in experiment [23] and in experiment [24] was “inactive” each time.

On to `Cc1ccc(-c2nnc(CSc3cc(C)nc(SCc4nnc(-c5ccc(C)cc5)n4N)n3)n2N)cc1`, for which the “diameter of the inhibition zone (DIZ)” value in experiment [1], in experiment [2], in experiment [3], in experiment [4], in experiment [5] and in [21] was “inactive” in each case. Moreover, the “diameter of the inhibition zone (DIZ)” value in experiment [22] is “inactive”. Besides, the zone of inhibition at 25 µg/disc in experiment [6] amounted to 7 mm; in experiment [10] it was 11 mm; in experiment [14], 13 mm; in experiment [18], 12 mm. Besides, the zone of inhibition at 50 µg/disc in [7] is 9 mm; in experiment [11], 14 mm; in experiment [15], 15 mm; in experiment [19] it was 14 mm; in experiment [23], 8 mm. For the same compound, the zone of inhibition at 100 µg/disc in [8] worked out at 11 mm; in experiment [12] it was 18 mm; in experiment [16], 18 mm; in experiment [20], 16 mm; in experiment [24], 10 mm. The zone of inhibition at 12.5 µg/disc in experiment [9] is 9 mm; in [13], 12 mm; in [17] it was 10 mm.

For `Cc1cc(SCc2nnc(-c3ccc(Br)cc3)n2N)nc(SCc2nnc(-c3ccc(Br)cc3)n2N)n1`, the zone of inhibition at 12.5 µg/disc in experiment [1] came out at 9 mm; in [5] it was 15 mm; in experiment [9] it was 16 mm; in experiment [13], 21 mm; in [17] it was 27 mm; in [21], 17 mm. Further, the zone of inhibition at 25 µg/disc in experiment [2] turned out to be 10 mm; in [6], 16 mm; in experiment [10], 20 mm; in [14], 23 mm; in experiment [18] it was 29 mm; in [22], 19 mm. Further, the zone of inhibition at 50 µg/disc stood at 12 mm in experiment [3]; 18 mm in [7]; 22 mm in experiment [11]; 25 mm in [15]; 31 mm in experiment [19]; 21 mm in experiment [23]. The zone of inhibition at 100 µg/disc was determined as 14 mm in experiment [4]; 20 mm in [8]; 25 mm in [12]; 28 mm in experiment [16]; 34 mm in experiment [20]; 24 mm in experiment [24].
